# Measured values as given in PubChem BioAssay AID2060899 (Molecular Pharmacology Branch, DTP, NCI, 2025).
# Tested on: 565726-208-R1-J5-PDC complex spheroids, growth inhibition
# Assay: Anticancer human tumor 565726-208-R1-J5-PDC patient-derived pancreatic adenocarcinoma cell line growth inhibition [RAS]
# Conditions: for IC50: curve of first compound; for viability, T/C: stronger effect = lower value
# Excerpt: RAS pathway inhibitors in Combinations in Complex Spheroids
# A high-throughput screen of multi-cell type tumor spheroids was designed to identify active combinations of RAS pathway inhibitors and targeted small molecules. Complex spheroids include a stromal component modeled by human endothelial cells (HUVEC) and fibroblasts modeled by human mesenchymal stem cells (MSCs). The concentration ranges selected for each drug and investigational agent were based upon clinically achievable concentrations if the clinical Cmax of the agent was known.
# Compounds. The drugs and investigational agents: abemaciclib (NSC768073), cobimetinib (NSC768068), divarasib (GDC6063, NSC841802), docetaxel (NSC628503), GDC-1971 (RLY-1971, NSC841576), gemcitabine (NSC613327), inavolisib (NSC800729), ipatasertib (NSC767898), KB-0742 (NSC834161), MRTX-1133 (NSC836407), osimertinib (NSC779217), RMC-4630 (NSC839698), RMC-6236 (NSC851965), RMC-6291 (NSC852671), Ro-3306 (NSC812927), sapanisertib (NSC764658), SN-38 (NSC673596), staurosporine (NSC755774), SY5609 (NSC837396), and tovorafenib (DAY101, NSC766906), were obtained from the National Cancer Institute (NCI) Developmental Therapeutics Program Chemical Repository. The FDA-approved anticancer drug set is available from the NCI Developmental Therapeutics Program. […] The stock solutions were prepared in dimethyl sulfoxide (DMSO, Sigma-Aldrich, St. Louis, MO, cat. D2650) at 800-fold the tested concentration and stored at -70 degrees C prior to their use. All drugs and investigational agents were tested over a range starting from a high concentration at or near the clinical Cmax and decreasing in half-log increments. If the clinical Cmax for an agent had not been determined, the highest concentration tested was 10 microM.
# Cell Culture. All cells were maintained in an incubator at 37 degrees C and 5% CO2 with 95% humidity. The PDC lines were cultured according to standard operating procedures established by the NCI PDMR. All PDCs were thawed and cultured in Matrigel-coated flasks prepared with a working solution of 1X Ham's F-12 nutrient mix, without supplementation (Invitrogen, Waltham, MA, cat. 11765054), 100 U/mL penicillin-streptomycin (Invitrogen, cat. 15140122), and 2.5% Matrigel (Corning Inc., Corning, NY, cat. 354248) for the first three passages. The 362531-283-R-J2-PDC and 782815-120-R-J1-PDC lines were cultured in 6C/Colon 1B media, which includes advanced DMEM/F-12 (Thermo Fisher Scientific, cat. 12634028), 10 mM HEPES (Thermo Fisher Scientific, cat. 15630080), 1X GlutaMAX supplement (Thermo Fisher Scientific, cat. 35050061), 0.1 mg/mL primocin (InvivoGen, San Diego, CA, cat. ant-pm-2), 10% defined fetal bovine serum, heat inactivated (HyClone Laboratories Inc., Logan, UT, cat. SH30070.03HI), 50% L-WRN conditioned media (ATCC, cat. CRL-3276), 1.25 mM N-Acetyl-L-cysteine (Sigma-Aldrich, cat. A9165), 10 mM nicotinamide (Sigma-Aldrich, cat. N0636), 1X B-27 supplement (Thermo Fisher Scientific, cat. 17504044), 1X N-2 supplement (Thermo Fisher Scientific, cat. 17502048), 50 ng/mL human EGF (Thermo Fisher Scientific, cat. PHG0311), and 10 microM Y-27632 dihydrochloride (Tocris Bioscience, cat. 1254). The K12877-001-R-J1-PDC line was cultured in 6I media, which includes all 6C/Colon 1B media plus 10 ng/mL human FGF-10 (PeproTech, cat. 100-26), 1 ng/mL human FGF-2 (PeproTech, cat. 100-18B), 1 µM prostaglandin E2 (Tocris Bioscience, cat. 2296), […] hydrocortisone (Sigma-Aldrich, cat. H4001), and […] bovine insulin (Sigma-Aldrich, cat. I6634). The K86415-001-R-J1-PDC line was cultured in 6D media, which includes all 6C/Colon 1B media components minus the L-WRN conditioned media. The 485176-168-R4-J1-PDC was cultured in PANC media, which includes all 6C/Colon 1B media plus 100 ng/mL human FGF-10 (PeproTech, cat. 100-26), 500 nM SB-431542 (Selleckchem, cat. S1067), and 10 nM gastrin (Tocris Bioscience, cat. 3006). […]
# 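Further: spheroids exposed to compounds for seven days before readout.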
# 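Wherever viability, T/C is given: 100% = DMSO vehicle control viability.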
structure (smiles),measurement,setting,value
CCc1c2c(nc3ccc(O)cc13)-c1cc3c(c(=O)n1C2)COC(=O)[C@]3(O)CC + C#Cc1c(F)ccc2cc(O)cc(-c3ncc4c(N5CC6CCC(C5)N6)nc(OCC56CCCN5CC(F)C6)nc4c3F)c12,IC50,second compound 0.0316 µM,4.16 nM
same,IC50,second compound 0.1 µM,4.06 nM
same,IC50,second compound 0.316 µM,3.83 nM
same,IC50,second compound 1 µM,2.73 nM
same,IC50,second compound 3.16 µM,3.14 nM
same,IC50,second compound 10 µM,1.5 nM
same,"viability, T/C","second compound 0.0316 µM, first compound 0.000949 µM",74.2%
same,"viability, T/C","second compound 0.0316 µM, first compound 0.003 µM",56.9%
same,"viability, T/C","second compound 0.0316 µM, first compound 0.00949 µM",34%
same,"viability, T/C","second compound 0.0316 µM, first compound 0.03 µM",20.2%
same,"viability, T/C","second compound 0.0316 µM, first compound 0.0949 µM",12.5%
same,"viability, T/C","second compound 0.0316 µM, first compound 0.3 µM",5.35%
same,"viability, T/C","second compound 0.1 µM, first compound 0.000949 µM",97.8%
same,"viability, T/C","second compound 0.1 µM, first compound 0.003 µM",56%
same,"viability, T/C","second compound 0.1 µM, first compound 0.00949 µM",31.8%
same,"viability, T/C","second compound 0.1 µM, first compound 0.03 µM",19.4%
same,"viability, T/C","second compound 0.1 µM, first compound 0.0949 µM",13.1%
same,"viability, T/C","second compound 0.1 µM, first compound 0.3 µM",6.83%
same,"viability, T/C","second compound 0.316 µM, first compound 0.000949 µM",81.1%
same,"viability, T/C","second compound 0.316 µM, first compound 0.003 µM",56.2%
same,"viability, T/C","second compound 0.316 µM, first compound 0.00949 µM",30.2%
same,"viability, T/C","second compound 0.316 µM, first compound 0.03 µM",20.6%
same,"viability, T/C","second compound 0.316 µM, first compound 0.0949 µM",13.9%
same,"viability, T/C","second compound 0.316 µM, first compound 0.3 µM",6.04%
same,"viability, T/C","second compound 1 µM, first compound 0.000949 µM",70.8%
same,"viability, T/C","second compound 1 µM, first compound 0.003 µM",43%
same,"viability, T/C","second compound 1 µM, first compound 0.00949 µM",35.9%
same,"viability, T/C","second compound 1 µM, first compound 0.03 µM",22.4%
same,"viability, T/C","second compound 1 µM, first compound 0.0949 µM",11.8%
same,"viability, T/C","second compound 1 µM, first compound 0.3 µM",6.08%
same,"viability, T/C","second compound 3.16 µM, first compound 0.000949 µM",58.8%
same,"viability, T/C","second compound 3.16 µM, first compound 0.003 µM",54.6%
same,"viability, T/C","second compound 3.16 µM, first compound 0.00949 µM",29.1%
same,"viability, T/C","second compound 3.16 µM, first compound 0.03 µM",22.1%
same,"viability, T/C","second compound 3.16 µM, first compound 0.0949 µM",14.1%
same,"viability, T/C","second compound 3.16 µM, first compound 0.3 µM",7.99%
same,"viability, T/C","second compound 10 µM, first compound 0.000949 µM",52.6%
same,"viability, T/C","second compound 10 µM, first compound 0.003 µM",49.1%
same,"viability, T/C","second compound 10 µM, first compound 0.00949 µM",30.1%
same,"viability, T/C","second compound 10 µM, first compound 0.03 µM",30.9%
same,"viability, T/C","second compound 10 µM, first compound 0.0949 µM",20.3%
same,"viability, T/C","second compound 10 µM, first compound 0.3 µM",8.91%
CCc1c2c(nc3ccc(O)cc13)-c1cc3c(c(=O)n1C2)COC(=O)[C@]3(O)CC + CCn1c(-c2cccnc2C(C)OC)c2c3cc(ccc31)N1CCOC(CC(NC(=O)C(C(C)C)N(C)C(=O)C3(F)CCN(C(=O)C#CC(C)(C)N(C)C)CC3)C(=O)N3CCCC(N3)C(=O)OCC(C)(C)C2)C1,IC50,second compound 0.000949 µM,2.34 nM
same,IC50,second compound 0.003 µM,2.11 nM
same,IC50,second compound 0.00949 µM,2.33 nM
same,IC50,second compound 0.03 µM,2.06 nM
same,IC50,second compound 0.0949 µM,1.98 nM
same,IC50,second compound 0.3 µM,1.64 nM
same,"viability, T/C","second compound 0.000949 µM, first compound 0.000949 µM",79.2%
same,"viability, T/C","second compound 0.000949 µM, first compound 0.003 µM",39.5%
same,"viability, T/C","second compound 0.000949 µM, first compound 0.00949 µM",25.5%
same,"viability, T/C","second compound 0.000949 µM, first compound 0.03 µM",14.4%
same,"viability, T/C","second compound 0.000949 µM, first compound 0.0949 µM",8.88%
same,"viability, T/C","second compound 0.000949 µM, first compound 0.3 µM",4.44%
same,"viability, T/C","second compound 0.003 µM, first compound 0.000949 µM",80.3%
same,"viability, T/C","second compound 0.003 µM, first compound 0.003 µM",33.2%
same,"viability, T/C","second compound 0.003 µM, first compound 0.00949 µM",23.6%
same,"viability, T/C","second compound 0.003 µM, first compound 0.03 µM",15.5%
same,"viability, T/C","second compound 0.003 µM, first compound 0.0949 µM",10.2%
same,"viability, T/C","second compound 0.003 µM, first compound 0.3 µM",5.03%
same,"viability, T/C","second compound 0.00949 µM, first compound 0.000949 µM",79%
same,"viability, T/C","second compound 0.00949 µM, first compound 0.003 µM",38.5%
same,"viability, T/C","second compound 0.00949 µM, first compound 0.00949 µM",27%
same,"viability, T/C","second compound 0.00949 µM, first compound 0.03 µM",13.2%
same,"viability, T/C","second compound 0.00949 µM, first compound 0.0949 µM",8.85%
same,"viability, T/C","second compound 0.00949 µM, first compound 0.3 µM",4.19%
same,"viability, T/C","second compound 0.03 µM, first compound 0.000949 µM",75.5%
same,"viability, T/C","second compound 0.03 µM, first compound 0.003 µM",34.5%
same,"viability, T/C","second compound 0.03 µM, first compound 0.00949 µM",23.8%
same,"viability, T/C","second compound 0.03 µM, first compound 0.03 µM",13.5%
same,"viability, T/C","second compound 0.03 µM, first compound 0.0949 µM",8.23%
same,"viability, T/C","second compound 0.03 µM, first compound 0.3 µM",3.69%
same,"viability, T/C","second compound 0.0949 µM, first compound 0.000949 µM",73.3%
same,"viability, T/C","second compound 0.0949 µM, first compound 0.003 µM",35.2%
same,"viability, T/C","second compound 0.0949 µM, first compound 0.00949 µM",20.5%
same,"viability, T/C","second compound 0.0949 µM, first compound 0.03 µM",11.1%
same,"viability, T/C","second compound 0.0949 µM, first compound 0.0949 µM",6%
same,"viability, T/C","second compound 0.0949 µM, first compound 0.3 µM",2.81%
same,"viability, T/C","second compound 0.3 µM, first compound 0.000949 µM",67.1%
same,"viability, T/C","second compound 0.3 µM, first compound 0.003 µM",30%
same,"viability, T/C","second compound 0.3 µM, first compound 0.00949 µM",16.7%
same,"viability, T/C","second compound 0.3 µM, first compound 0.03 µM",8.71%
same,"viability, T/C","second compound 0.3 µM, first compound 0.0949 µM",5.1%
same,"viability, T/C","second compound 0.3 µM, first compound 0.3 µM",2.77%
